Earlier results on two substances are cited in article PMC11010885, “Functional Analysis and Tissue-Specific Expression of Calcitonin and CGRP with RAMP-Modulated Receptors CTR and CLR in Chickens” (Animals : an Open Access Journal from MDPI, 2024).

The test system of this data set is RAMP1- and RAMP3-derived amylin receptors. The settings on record: ref [51],[53]; cited from earlier work. The method, then:
In mammals, CTR functions as a receptor for three distinct hormones: CT, CGRP, and amylin (not explored in this study). The specific affinity spectrum is determined by its co-expression with RAMPs. Although CTR alone is a receptor for CT that is involved in bone homeostasis, CTRs in complex with RAMP1–3 are high-affinity receptors for amylin, a peptide involved in the regulation of food intake. […] The CTR + RAMP1 complex is a ...

For “human CT: human CT, cited from the literature”, the affinity entry is recorded as “low affinity”.

For “rat amylin: rat amylin, cited from the literature”, the affinity entry is recorded as “moderate affinity”.
